Among the data in patent US20250154146A1, “PROTEIN DEGRADERS DEVELOPED ON BASIS OF BCL-2 FAMILY PROTEIN LIGAND COMPOUNDS AND USE THEREOF” (ShanghaiTech University, priority 2022, published 2025) are IC50 values, retold here.

Common to all, as to format: cell-based
One experiment deals with Molt-4 cells. Kind of experiment: Thiazolyl blue cell proliferation assay in Molt-4 cells. The following applies: Homo sapiens, Molt-4 acute lymphocytic leukemia cells, 72 hours, read-out: IC50 (nM) for inhibiting the proliferation of Molt-4 cells. From the text: (§1) The cell lines RS4;11 (human acute lymphocytic leukemia cells), Molt-4 cells (human acute lymphocytic leukemia cells), MV4;11 (human myeloid monocytic leukemia cells), and Light II cells were commercially available or purchased from ATCC (American Type Culture Collection) and routinely cultured according to instructions.
3) Study on the proliferation inhibition effects induced by the compounds of the present disclosure designed based on ABT199/263 against BCL-XL-dependent Molt-4 cells:
(§2) The specific steps were as follows: Molt-4 cells were seeded at a density of 2×10^4 cells/well in 180 μL of serum-containing RPMI 1640 culture medium. DT2216 and the compounds of the present disclosure were added to the cell suspension at corresponding concentration gradients. DT2216 and DMSO were used as positive and vehicle control, respectively. The positive control and negative control were treated with the same treatment method as the compounds of the present disclosure. After treating the cells with the compounds of the present disclosure for 72 hours, thiazole blue solution (5 mg/mL) was added at 20 μL/well to the cell suspension, followed by incubation for 3 hours at 37° C. in an incubator with 5% CO2. Then, triple solution (0.1 g/mL SDS, 5% isopropyl alcohol, 10 mM hydrochloric acid) was added, followed by incubation for 4-6 hours at 37° C. in an incubator with 5% CO2. After confirming that all the crystal violets were dissolved under inverted biological microscopy, the absorbance was measured at 490 nm using an Epoch microplate reader (Biotek Corporation). The growth inhibition of the compounds of the present disclosure on the cells was plotted by GraphPad Prism 8 software, and the IC50 values of the compounds of the present disclosure were calculated therefrom. The experiment had 3 replicates per group and was repeated at least three times.

Another experiment concerns MV4;11 cells. Kind of experiment: Thiazolyl blue cell proliferation assay in MV4;11 cells. Particulars: Homo sapiens, MV4;11 myeloid monocytic leukemia cells, 48 hours, read-out: IC50 (nM) for inhibiting the proliferation of MV4;11 cells.
Text: as §1
2) Study on the proliferation inhibition effects induced by the compounds of the present disclosure designed based on ABT199/263 against BCL-XL-dependent MV4;11 cells:
as §2, with “MV4;11” for “Molt-4”, “90” for “180”, “IMDM” for “RPMI 1640”, “48” for “72”, “10 µL/well” for “20 μL/well”

Another experiment has as its system RS4;11 cells. As to the kind of experiment: Thiazolyl blue cell proliferation assay in RS4;11 cells. Particulars: Homo sapiens, RS4;11 acute lymphoblastic leukemia cells, 48 hours, read-out: IC50 (nM) for inhibiting the proliferation of RS4;11 cells.
Text: as §1
1) Study on the proliferation inhibition effects induced by the compounds of the present disclosure designed based on ABT199/263 against BCL-XL-dependent RS4;11 cells:
as §2, with “RS4;11” for “Molt-4”, “3×10^4” for “2×10^4”, “90” for “180”, “RPMI-1640” for “RPMI 1640”, “48” for “72”, “10” for “20”
We conducted dose-dependent experiments on the designed and synthesized compounds of the present disclosure in RS4;11 cells, which are highly sensitive to BCL-XL inhibitors. The cells were treated with 7 different concentrations (starting at the highest concentration of 1000 nM or 100 nM; 10-fold serial dilutions) of the compounds for 48 hours, and then tested using the thiazolyl blue cell proliferation assay.

The structures appear in SMILES notation.

For the compound `C[C@H]1CN([C@H]2CC[C@@H](CNc3ccc(S(=O)(=O)NC(=O)c4ccc(N5CCN(CC6=C(c7ccc(Cl)cc7)CC(C)(C)CC6)CC5)cc4Oc4cnc5[nH]ccc5c4)cc3[N+](=O)[O-])CC2)CCN1Cc1ccc2c(c1)C(=O)N(C1CCC(=O)NC1=O)C2=O` (stereo partly drawn) [BCL-03190, 2-((1H-pyrrolo[2,3-b]pyridin-5-yl)oxy)-4-(4-((4′-chloro-5,5-dimethyl-3,4,5,6-tetrahydro-[1,1′-biphenyl]-2-yl)methyl)piperazin-1-yl)-N-((4-((((cis)-4-((3S)-4-((2-(2,6-dioxopiperidin-3-yl)-1,3-dioxoisoindolin-5-yl)methyl)-3-methylpiperazin-1-yl)cyclohexyl)methyl)amino)-3-nitrophenyl)sulfonyl)benzamide], the IC50 is below 10 nM in the experiment with Molt-4 cells, below 20 nM in the experiment with MV4;11 cells and below 20 nM in the experiment on RS4;11 cells.
As for `CC1(C)CCC(CN2CCN(c3ccc(C(=O)NS(=O)(=O)c4ccc(NC[C@H]5CC[C@H](N6CCN(Cc7ccc8c(c7)CN(C7CCC(=O)NC7=O)C8=O)CC6)CC5)c(S(=O)(=O)C(F)(F)F)c4)c(Oc4cnc5[nH]ccc5c4)c3)CC2)=C(c2ccc(Cl)cc2)C1` (stereo partly drawn) [BCL-03179, 2-((1H-pyrrolo[2,3-b]pyridin-5-yl)oxy)-4-(4-((4′-chloro-5,5-dimethyl-3,4,5,6-tetrahydro-[1,1′-biphenyl]-2-yl)methyl)piperazin-1-yl)-N-((4-((((trans)-4-(4-((2-(2,6-dioxopiperidin-3-yl)-1-oxoisoindolin-5-yl)methyl)piperazin-1-yl)cyclohexyl)methyl)amino)-3-((trifluoromethyl)sulfonyl)phenyl)sulfonyl)benzamide], the IC50 is below 10 nM with Molt-4 cells, below 20 nM in the experiment with MV4;11 cells and below 20 nM in the experiment with RS4;11 cells.
As to `CC1(C)CCC(c2ccc(Cl)cc2)=C(CN2CCN(c3ccc(C(=O)NS(=O)(=O)c4ccc(NC[C@H]5CC[C@H](N6CCN(Cc7ccc8c(c7)CN(C7CCC(=O)NC7=O)C8=O)CC6)CC5)c(S(=O)(=O)C(F)(F)F)c4)cc3)CC2)C1` (stereo partly drawn) [BCL-03180, 4-(4-((4′-chloro-4,4-dimethyl-3,4,5,6-tetrahydro-[1,1′-biphenyl]-2-yl)methyl)piperazin-1-yl)-N-((4-((((trans)-4-(4-((2-(2,6-dioxopiperidin-3-yl)-1-oxoisoindolin-5-yl)methyl)piperazin-1-yl)cyclohexyl)methyl)amino)-3-((trifluoromethyl)sulfonyl)phenyl)sulfonyl)benzamide], the IC50 with RS4;11 cells is below 20 nM.
On to `CC1(C)CCC(CN2CCN(c3ccc(C(=O)NS(=O)(=O)c4ccc(NC[C@H]5CC[C@H](N6CCN(Cc7ccc8c(c7)C(=O)N(C7CCC(=O)NC7=O)C8=O)CC6)CC5)c([N+](=O)[O-])c4)c(Oc4cnc5[nH]ccc5c4)c3)CC2)=C(c2ccc(Cl)cc2)C1` (relative stereo) [BCL-03188, 2-((1H-pyrrolo[2,3-b]pyridin-5-yl)oxy)-4-(4-((4′-chloro-5,5-dimethyl-3,4,5,6-tetrahydro-[1,1′-biphenyl]-2-yl)methyl)piperazin-1-yl)-N-((4-((((trans)-4-(4-((2-(2,6-dioxopiperidin-3-yl)-1,3-dioxoisoindolin-5-yl)methyl)piperazin-1-yl)cyclohexyl)methyl)amino)-3-nitrophenyl)sulfonyl)benzamide], for which the IC50 with Molt-4 cells was below 10 nM; with MV4;11 cells, below 20 nM; in the experiment on RS4;11 cells it was below 20 nM.
As to `CC1(C)CCC(CN2CCN(c3ccc(C(=O)NS(=O)(=O)c4ccc(NC[C@H]5CC[C@H](N6CCN(Cc7cc(Br)c8c(c7)C(=O)N(C7CCC(=O)NC7=O)C8)CC6)CC5)c(S(=O)(=O)C(F)(F)F)c4)c(Oc4cnc5[nH]ccc5c4)c3)CC2)=C(c2ccc(Cl)cc2)C1` (stereo partly drawn) [BCL-03182, 2-((1H-pyrrolo[2,3-b]pyridin-5-yl)oxy)-N-((4-((((trans)-4-(4-((7-bromo-2-(2,6-dioxopiperidin-3-yl)-3-oxoisoindolin-5-yl)methyl)piperazin-1-yl)cyclohexyl)methyl)amino)-3-((trifluoromethyl)sulfonyl)phenyl)sulfonyl)-4-(4-((4′-chloro-5,5-dimethyl-3,4,5,6-tetrahydro-[1,1′-biphenyl]-2-yl)methyl)piperazin-1-yl)benzamide], the IC50 is below 10 nM in the experiment with Molt-4 cells, below 20 nM in the experiment with MV4;11 cells and below 20 nM in the experiment with RS4;11 cells.
Turning to `CC1(C)CCC(c2ccc(Cl)cc2)=C(CN2CCN(c3ccc(C(=O)NS(=O)(=O)c4ccc(NC[C@H]5CC[C@H](N6CCN(Cc7ccc8c(c7)CN(C7CCC(=O)NC7=O)C8=O)CC6)CC5)c([N+](=O)[O-])c4)cc3)CC2)C1` (stereo partly drawn) [BCL-03181, 4-(4-((4′-chloro-4,4-dimethyl-3,4,5,6-tetrahydro-[1,1′-biphenyl]-2-yl)methyl)piperazin-1-yl)-N-((4-((((trans)-4-(4-((2-(2,6-dioxopiperidin-3-yl)-1-oxoisoindolin-5-yl)methyl)piperazin-1-yl)cyclohexyl)methyl)amino)-3-nitrophenyl)sulfonyl)benzamide], the IC50 in the experiment with RS4;11 cells is below 20 nM.
Consider `CC1(C)CCC(CN2CCN(c3ccc(C(=O)NS(=O)(=O)c4ccc(NC[C@H]5CC[C@H](N6CCN(Cc7ccc8c(c7)C(=O)N(C7CCC(=O)NC7=O)C8=O)CC6)CC5)c(S(=O)(=O)C(F)(F)F)c4)c(Oc4cnc5[nH]ccc5c4)c3)CC2)=C(c2ccc(Cl)cc2)C1` (stereo partly drawn) [BCL-03185, 2-((1H-pyrrolo[2,3-b]pyridin-5-yl)oxy)-4-(4-((4′-chloro-5,5-dimethyl-3,4,5,6-tetrahydro-[1,1′-biphenyl]-2-yl)methyl)piperazin-1-yl)-N-((4-((((trans)-4-(4-((2-(2,6-dioxopiperidin-3-yl)-1,3-dioxoisoindolin-5-yl)methyl)piperazin-1-yl)cyclohexyl)methyl)amino)-3-((trifluoromethyl)sulfonyl)phenyl)sulfonyl)benzamide], for which the IC50 in the experiment on Molt-4 cells was below 10 nM; in the experiment on MV4;11 cells, below 20 nM; in the experiment with RS4;11 cells it was below 20 nM.
As to `Cc1ncsc1-c1ccc([C@H](C)NC(=O)[C@@H]2C[C@@H](O)CN2C(=O)[C@@H](NC(=O)CCCCCC(=O)N2CCN(CC[C@H](CSc3ccccc3)Nc3ccc(S(=O)(=O)NC(=O)c4ccc(N5CCN(CC6=C(c7ccc(Cl)cc7)CCC(C)(C)C6)CC5)cc4)cc3S(=O)(=O)C(F)(F)F)CC2)C(C)(C)C)cc1` [DT2216, reference compound], the values for the IC50 in the experiment on Molt-4 cells, in the experiment on MV4;11 cells and in the experiment with RS4;11 cells were 17.3 ± 9.57 nM, 165 ± 70.7 nM and 81 ± 24.9 nM, respectively.
